Structures can show the parent of a compound that is named as a salt. Where two headings read alike, the source gives them in different places.
System: STING activation (IFNβ release) in iBMDMs
Test: IFNβ release ELISA after STING ligand (or LPS) stimulation, iBMDMs
Assay type: cell-based, mouse
Summary of the method: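 IFNβ released into the medium was quantified by ELISA (mouse or human kit) after iBMDM stimulation with the canonical STING agonist 3′3′-cGAMP or with LPS.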

[1] = iBMDMs, 3′3′-cGAMP 10 μg/ml, 16 hours, compound 10 μM

SMILES	fold increase in IFN-β release [1]	further results
C/C(=N\NC(=S)N1CCC1)c1ccccn1 [NSC 319726]	2.43 fold	
CCCC(C)NC(=O)c1ccc(Cl)c(Cl)c1 (stereo not shown) [NSC 405020]	1.24 fold	
Nc1ncnc2c1c(-c1cccc(OCc3ccccc3)c1)cn2C1CC(CN2CCCC2)C1 (stereo not shown) [NVP-ADW742]	0.61 fold	
COc1ccccc1N1CCN(CC(O)COc2cccc3ccccc23)CC1 (stereo not shown) [Naftopidil]	2.46 fold	
O=C1CC[C@@]2(O)[C@H]3Cc4ccc(O)c5c4[C@@]2(CCN3CC2CC2)[C@H]1O5 [Naltrexone HCl]	3.12 fold	
COc1ccc2cc([C@H](C)C(=O)O)ccc2c1 [Naproxen]	1.46 fold	
OC(CNCC(O)C1CCc2cc(F)ccc2O1)C1CCc2cc(F)ccc2O1 (stereo not shown) [Nebivolol]	0.75 fold	
CN1C(=O)C(Cc2c[nH]c3ccccc23)NC1=S (stereo not shown) [Necrostatin-1]	1.60 fold	
Cc1cn(-c2cc(NC(=O)c3ccc(C)c(Nc4nccc(-c5cccnc5)n4)c3)cc(C(F)(F)F)c2)cn1 [Nilotinib (AMN-107), Nilotinib]	0.77 fold	
COC(=O)C1=C(C#N)NC(C)=C(C(=O)OC(C)C)C1c1cccc([N+](=O)[O-])c1 (stereo not shown) [Nilvadipine]	1.79 fold	
C[C@]1(O)C[C@@H](c2nc(-c3ccc4ccc(-c5ccccc5)nc4c3)c3c(N)nccn32)C1 [OSI-906 (Linsitinib), Linsitinib]	0.66 fold	
NCC(=O)Nc1ccc(-n2nc(C(F)(F)F)cc2-c2ccc3c(ccc4ccccc43)c2)cc1 [OSU-03012 (AR-12)]	0.31 fold	
Cc1sc2c(c1C)C(c1ccc(Cl)cc1)=N[C@@H](CC(=O)Nc1ccc(O)cc1)c1nnc(C)n1-2 [OTX015]	0.43 fold	
CC(C)(F)C[C@H](N[C@@H](c1ccc(-c2ccc(S(C)(=O)=O)cc2)cc1)C(F)(F)F)C(=O)NC1(C#N)CC1 [Odanacatib (MK-0822), Odanacatib]	0.90 fold	
CC[C@@H]1/C=C/C=C/C[C@H](C)[C@H](O)[C@](C)(O)C(=O)[C@H](C)[C@@H](O)[C@H](C)C(=O)[C@H](C)[C@@H](O)[C@H](C)/C=C/C(=O)O[C@H]2[C@@H](C)[C@@H](CC1)O[C@@]1(CC[C@@H](C)[C@@H](C[C@H](C)O)O1)[C@@H]2C [Oligomycin A]	2.49 fold	
CCc1c(C(=O)NCCc2ccc(N3CCCCC3)cc2)[nH]c2ccc(Cl)cc12 [Org 27569]	1.74 fold	
OCCOc1ccc(/C(=C(/CCCl)c2ccccc2)c2ccccc2)cc1 [Ospemifene]		fold increase in IFN-β release: 0.10 fold
C[C@@H]1O[C@@H](O[C@H]2C[C@@H](O)[C@]3(CO)[C@H]4[C@H](O)C[C@]5(C)[C@@H](C6=CC(=O)OC6)CC[C@]5(O)[C@@H]4CC[C@]3(O)C2)[C@H](O)[C@H](O)[C@H]1O [Ouabain]	1.08 fold	
NC(=O)N1c2ccccc2CC(=O)c2ccccc21 [Oxcarbazepine]	5.22 fold	
Cc1cc(C(C)(C)C)c(O)c(C)c1CC1=NCCN1 [Oxymetazoline HCl]	1.16 fold	
O=C(O)/C=C/c1ccc(Cn2ccnc2)cc1 [Ozagrel HCl]		fold increase in IFN-β release (iBMDMs, 3′3′-cGAMP 10 μg/ml, 16 hours, compound 10 μM, HCl): 2.13 fold
O=C(O)/C=C/c1ccc(Cn2ccnc2)cc1 [Ozagrel]	0.11 fold	
CC(=O)c1cc([N+](=O)[O-])c(Sc2ccc(F)cc2F)s1 [P22077]	0.35 fold	

SMILES	fold increase in IFN-β release [1]	further results
C=CCc1cccc(/C=N/NC(=O)CN2CCN(Cc3ccccc3)CC2)c1O [PAC-1]	0.17 fold	
O=C(NOCC1CC1)c1ccc(F)c(F)c1Nc1ccc(I)cc1Cl [PD184352 (CI-1040)]	0.94 fold	
O=C(NOC[C@H](O)CO)c1ccc(F)c(F)c1Nc1ccc(I)cc1F [PD0325901]	0.39 fold	
O=C(O)/C(S)=C/c1c[nH]c2ccc(F)cc12 [PD 151746]	1.92 fold	
O=C(Nc1cccnc1)N1CCC(Cc2cccc(Oc3ccc(C(F)(F)F)cn3)c2)CC1 [PF-3845]	2.14 fold	
CN(c1ncccc1CNc1nc(Nc2ccc3c(c2)CC(=O)N3)ncc1C(F)(F)F)S(C)(=O)=O [PF-562271]	0.21 fold	
CS(=O)(=O)c1cccc(CNc2nc(Nc3ccc4c(c3)CCC(=O)N4)ncc2C(F)(F)F)c1 [PF-573228]	0.87 fold	
OCCn1cc(-c2cnc3nnn(Cc4ccc5ncccc5c4)c3n2)cn1 [PF-04217903]	1.49 fold	
CCc1cncnc1N1CCN(Cc2nc3ccc(C(F)(F)F)cc3[nH]2)CC1 [PF-4708671]	2.12 fold	
Cc1cnc(-c2cc(N3CCN(C(=O)CCS(C)(=O)=O)CC3)ncc2Cl)c(C)c1 [PF-5274857]	0.16 fold	
COc1ccccc1S(=O)(=O)Nc1ccc2c(c1)CN(C)C(=O)N2 [PFI-1 (PF-6405761)]	0.52 fold	
O=C(/C=C/c1ccc2ccccc2n1)c1ccncc1 [PFK15]	0.68 fold	
Cc1[nH]c(/C=C2\C(=O)Nc3ccc(S(=O)(=O)Cc4c(Cl)cccc4Cl)cc32)c(C)c1C(=O)N1CCC[C@@H]1CN1CCCC1 [PHA-665752]	0.43 fold	
CC(C)CC(=O)Nc1[nH]nc2c1CN(C(=O)C1CCN(C)CC1)C2(C)C [PHA-793887]	2.28 fold	
CCCc1ccc(OCC(=O)N(Cc2nc(-c3cccnc3)no2)C(C)C)cc1 [PI-1840]	0.60 fold	
COc1cc(OC)c(NC(=O)Nc2cc(C)on2)cc1Cl [PNU-120596]	0.12 fold	
CC(C)(C)n1nc(-c2ccc(Cl)cc2)c2c(N)ncnc21 [PP2]	0.14 fold	
N#CSc1cc(SC#N)c(N)nc1N [PR-619]	0.79 fold	
Br.COc1cc(Br)c(Nc2nc(-c3c(C)nc4ncccn34)cs2)c(Br)c1 [PTC-209 HBr]	0.27 fold	
COc1cc(Br)c(Nc2nc(-c3c(C)nc4ncccn34)cs2)c(Br)c1 [PTC-209]	2.11 fold	
CC(C)NCCCn1c(Sc2cc3c(cc2I)OCO3)nc2c(N)ncnc21 [PU-H71]	1.13 fold	
CCOC(=O)c1ccc(N2NC(=O)/C(=C/c3ccc([N+](=O)[O-])o3)C2=O)cc1 [PYR-41]	1.13 fold	
C1=C/COCc2cc(ccc2OCCN2CCCC2)Nc2nccc(n2)-c2cccc(c2)COC/1 [Pacritinib (SB1518), Pacritinib]	1.58 fold	

SMILES	fold increase in IFN-β release [1]	further results
CC(=O)c1c(C)c2cnc(Nc3ccc(N4CCNCC4)cn3)nc2n(C2CCCC2)c1=O [Palbociclib (PD-0332991) HCl, Palbociclib]	0.94 fold	
CC(=O)O[C@H]1C[C@@H]2CC[C@@H]3[C@H](CC[C@@]4(C)[C@H]3C[C@H]([N+]3(C)CCCCC3)[C@@H]4OC(C)=O)[C@@]2(C)C[C@@H]1[N+]1(C)CCCCC1.[Br-].[Br-] [Pancuronium dibromide]	1.20 fold	
Cc1[nH]c2ccccc2c1CCNCc1ccc(/C=C/C(=O)NO)cc1 [Panobinostat (LBH589), Panobinostat]	0.61 fold	
Oc1cc(O)cc(/C=C/c2ccc(O)c(O)c2)c1 [Piceatannol]	0.42 fold	
COc1ccc(-c2nc3ccc(C4=NNC(=O)CC4C)cc3[nH]2)cc1 (stereo not shown) [Pimobendan]	1.79 fold	
O=C(NNc1ccccc1)c1ccncc1 [PluriSln #1 (NSC 14613)]	0.62 fold	
Nc1cccc2c1C(=O)N(C1CCC(=O)NC1=O)C2=O (stereo not shown) [Pomalidomide]	2.12 fold	
C#CCC(Cc1cnc2nc(N)nc(N)c2n1)c1ccc(C(=O)N[C@@H](CCC(=O)O)C(=O)O)cc1 (stereo partly shown) [Pralatrexate]	4.31 fold	
CCCN[C@H]1CCc2nc(N)sc2C1 [Pramipexole]	2.07 fold	
CC(C)NCC(O)COc1cccc2ccccc12 (stereo not shown) [Propranolol HCl]	2.07 fold	
CCc1nc(N)nc(N)c1-c1ccc(Cl)cc1 [Pyrimethamine]	5.22 fold	
CC(C)(C)c1cc(NC(=O)Nc2ccc(-c3cn4c(n3)sc3cc(OCCN5CCOCC5)ccc34)cc2)no1 [Quizartinib (AC220), Quizartinib]	0.91 fold	
O=C(NCc1cccc(O)c1)Nc1nc(-c2ccncc2)cs1 [RKI-1447]	2.41 fold	
Cc1nnc(C(=O)NC(C)(C)c2nc(C(=O)NCc3ccc(F)cc3)c(O)c(=O)n2C)o1 [Raltegravir (MK-0518), Raltegravir]	4.80 fold	
CCC(=O)NCC[C@@H]1CCc2ccc3c(c21)CCO3 [Ramelteon]	0.56 fold	
CNC(=C[N+](=O)[O-])NCCSCc1ccc(CN(C)C)o1 [Ranitidine]	2.87 fold	
C#CCN[C@@H]1CCc2ccccc21 [Rasagiline Mesylate]	1.77 fold	
O=C(NC(Cc1cc(=O)[nH]c2ccccc12)C(=O)O)c1ccc(Cl)cc1 (stereo not shown) [Rebamipide]	2.54 fold	
COc1cc(F)c(F)c(Nc2ccc(I)cc2F)c1NS(=O)(=O)C1(C[C@H](O)CO)CC1 [Refametinib (RDEA119, Bay 86-9766), Refametinib]	0.64 fold	
Cc1cccc(-c2[nH]ncc2-c2ccc3ncccc3n2)n1 [RepSox]		fold increase in IFN-β release: 0.99 fold
CO[C@H]1C[C@@H]2CC[C@@H](C)[C@@](O)(O2)C(=O)C(=O)N2CCCC[C@H]2C(=O)O[C@H]([C@H](C)C[C@@H]2CC[C@@H](OP(C)(C)=O)[C@H](OC)C2)CC(=O)[C@H](C)/C=C(\C)[C@@H](O)[C@@H](OC)C(=O)[C@H](C)C[C@H](C)/C=C/C=C/C=C/1C [Ridaforolimus (Deforolimus, MK-8669), Ridaforolimus]	0.58 fold	

Reference: patent publication US11179412B2, “Methods of treating conditions involving elevated inflammatory response” (University of Pittsburgh—Of the Commonwealth System of …, priority 2017, dated 2021)
